Source: PMC8903780, “Therapeutic efficacy of an injectable formulation of purinostat mesylate in SU-DHL-6 tumour model” (Annals of Medicine, 2022)
Structures can show the parent of a compound that is named as a salt. Where two headings read alike, the source gives them in different places. Marks after values point to notes of the source that are not given here.

Columns and labels:
SU-DHL-6 cells [1] = experiment: Annexin V-FITC/PI flow cytometry apoptosis assay; type: cell-based, human; conditions: 48 h
Description: The pro-apoptotic effect of the PM/HP-β-CD complex on SU-DHL-6 cells was investigated by flow cytometry. […] cells in good condition were collected and inoculated in the six-well plate with 2⋄10^5 cells per well. After being cultured for 24 h, cells were treated with PM and PM/HP-β-CD inclusion at 3 nM and 6 nM, using LBH589 at 6 nM as the positive control. The cells without drug treatment were the negative control. After 48 h incubation, the cells were then processed by annexin V-FITC/PI staining as the manufacturer’s instructions (KeyGen, 100 assays).

[2] = test system: human double-hit lymphoma SU-DHL-6 xenograft tumours; type: in vivo
Description: (§1) To better determine the anti-tumour activity of the PM/HP-β-CD complex, the SU-DHL-6 cell line xenografts were established in immunodeficiency mice. The NOD/SCID mice were subcutaneously inoculated 7 × 10^6 cells per mouse. […] A mimic of HyperCVAD regimen, standard chemotherapy for B cell lymphoma ([22],[23]), especially aggressive subtypes, for example, double-hit lymphoma, was set as a positive control group for comparison (Table 2). Satellite groups were set up in the 10 mg/kg group, 20 mg/kg group, and the Hyper-CVAD group. Animals in the satellite groups were not sacrificed at the end of the treatment and underwent long-term treatment for further investigation. In the survival study, the animal mortality criterion was that the tumour volume reached 3000 mm^3 or the individual animal died, and the animal survival time was statistically analysed.
When the experimental period was over, the tumour was weighed and photographed, the main organs and tumours were collected, fixed, and embedded in paraffin for Histological and immunohistochemical analysis.

[3] = Phase solubility analysis of PM in HP-β-CD solutions; type: physicochemical; conditions: inclusion of PM by HP-β-CD
Description: Excess PM were added into 6 mL HP-β-CD solutions ranged from 0 to 150 mg/mL [14, 19]. The mixture solution was stirred at 1000 rpm for 24 h at 37 °C and filtered using 0.22 μm Millipore filtration. The apparent solubility of PM was calculated, and the stability constant (Ks) was calculated as the Higuchi-Connors equation, Equation (a). The Gibbs free energy (ΔG) was calculated as Equation (b), R represents the general gas constant and T represents the Kelvin temperature. (a) Ks=slope/(S0×(1–slope)) (b) ΔG=−RTlnKs

SU-DHL-6 cells [4] = experiment: In vitro cytotoxicity study (MTT); type: cell-based; conditions: Homo sapiens, 48 h
Description: To investigate the anti-tumour proliferation effect of PM/HP-β-CD, in vitro cytotoxicity test was performed. After being seeded with 96-well plates, the in vitro cultured cells were allowed to acclimate for about 1 h. The experimental group was added with 100 μL of medium containing free PM, HP-β-CD, or PM/HP-β-CD with different concentrations, and the control group was added with an equal volume of fresh medium. Each group was set up with 3 parallel holes and a cultured incubator with 5% CO2 at 37 °C. At 48 h, the survival rate of each group was calculated with the MTT method, and the IC50 value was fitted.

[5] = test system: SU-DHL-6 subcutaneous tumours; experiment: Survival study in satellite groups of the SU-DHL-6 subcutaneous model; type: in vivo, NOD/SCID mice; conditions: long-term treatment, death criterion tumour volume 3000 mm^3 or death
Description: as §1

[6] = In vivo pharmacokinetics after oral or intravenous administration; conditions: SD rats, 10 mg/kg; for Cmax: read-out: maximum value (Cmax) of plasma concentration
Description: Adult SD rats (180–220 g) were used to investigate the in vivo kinetics of PM after oral or intravenous administration. The rats were fasted overnight and divided into oral and intravenous groups, containing three male and three female rats in each group. Then, 10 mg/kg of PM was administered in each rat. 0.2 mL of jugular vein blood samples were collected at a predetermined time interval of 0, 5, 15, 30, 60, 120, 240, 360, 480, and 600 min, centrifuged at 1500 rpm for 15 min at 4 °C to separate the plasma, and stored at −80 °C for the analysis by UPLC-MS. After the test, Phoenix WinNonlin software and non-compartmental analysis were used to calculate parameters such as maximum plasma concentration (Cmax), plasma clearance (CL), time to achieve maximum plasma concentration (Tmax), steady-state apparent distribution volume (Vdss), elimination half-life (t1/2), area under the concentration-time curve (AUC), and related bioavailability.

[7] = test system: acetyl histone H4 (Ac-H4); experiment: Immunohistochemical detection of Ac-H4 in tumour tissue; type: in vivo, NOD/SCID mice; conditions: immunostaining after PM treatment, SU-DHL-6 subcutaneous tumour
Description: (§2) The proliferation of tumour cells was detected by immune histochemical staining with the primary antibody of Ki-67 (Lab Vision, MA, USA). DNA double-stranded breaks were investigated by staining with the primary antibody of H2A histone family member X (γH2AX, Upstate Biotechnology, Lake Placid, NY, USA). Primary antibodies of acetyl histone H4 (Ac-H4, Upstate Biotechnology, Lake Placid, NY, USA) were used to detect the acetylation of Histone H4. FITC-labelled secondary antibodies (F-0382; Sigma) were applied with a concentration of 1:500. The images were taken with the Nikon E800 scope.

γH2AX = experiment: Immunohistochemical detection of γH2AX in tumour tissue; type: in vivo, NOD/SCID mice; conditions: immunostaining after PM treatment, SU-DHL-6 subcutaneous tumour
Description: as §2

Ki-67 = experiment: Immunohistochemical detection of Ki-67 in tumour tissue; type: in vivo, NOD/SCID mice; conditions: immunostaining after PM treatment, SU-DHL-6 subcutaneous tumour
Description: as §2

[8] = test system: human double-hit lymphoma SU-DHL-6 cell line xenografts; experiment: Oral versus intravenous administration study in SU-DHL-6 xenografts; conditions: for Number End/begin / RTV / Tumor Weight (g) X ±SD / Tumor Weight Inhibition (%) / Tumor volume T/C% / animal status / deaths: 16 days; for Body weight (g) X ± SD Begin / Tumor volume (mm^3) X ±SD Begin: begin of treatment; for Body Weight (g) X ±SD End / Tumor volume (mm^3) X ±SD End: end of 16 days treatment; for animal status / deaths: 10 mg/kg
Description: To determine whether PM is suitable for oral or intravenous administration, the anti-tumor activity and the safety were investigated in a human double-hit lymphoma SU-DHL-6 cell line xenografts established in immunodeficiency mice. Each mouse was injected subcutaneously with 0.1 mL of cell suspension containing 1×10^6 cells. […] Tumor size and body weight were measured during the experimental period and the tumor volumes were calculated according to the formula: volume (mm^3) = length × width^2 × 0.5. When the experimental period was over, all the mice were sacrificed, and the tumor was weighed and photographed.

[9] = positive control groups, dose column – (RTX 10 mg/kg), 14 days
[10] = positive control groups, dose column – (RTX 10 mg/kg), begin of treatment
[11] = positive control groups, dose column – (RTX 10 mg/kg), end of 14 days treatment
[12] = positive control groups, dose column – (RTX 10 mg/kg), regimens Table 2, 14 days
[13] = both sexes, rat, plasma, intravenous administration
[14] = both sexes, rat, plasma, oral administration

## Cc1[nH]c2ccccc2c1CCNCc1ccc(/C=C/C(=O)NO)cc1 [LBH589, reference compound]
SU-DHL-6 cells [1]; 6 nM
  apoptotic SU-DHL-6 cells: 60.1%
[2]; [9]
  RTV: 26.54
  Tumour volume T/C%: 101.83%
  Tumour weight (g) X ± SD: 3.81 ± 1.08 g
  Tumour weight Inhibition (%): 22.72%
[2]; [10]
  Tumour volume (mm^3) X ± SD Begin: 152.7 ± 30.6 mm^3
[2]; [11]
  Tumour volume (mm^3) X ± SD End: 4015.5 ± 1048.0 mm^3
[2]; [12]
  Number End/begin: 7/7

## Rituximab [RTX, reference compound]
[2]; [9]
  RTV: 24.16
  Tumour volume T/C%: 92.71%
  Tumour weight (g) X ± SD: 3.47 ± 1.07^ad g
  Tumour weight Inhibition (%): 29.47%
[2]; [10]
  Body weight (g) X ± SD Begin: 22.4 ± 0.4 g
  Tumour volume (mm^3) X ± SD Begin: 153.7 ± 33.1 mm^3
[2]; [11]
  Body Weight (g) X ±SD End: 25.1 ± 1.0 g
  Tumour volume (mm^3) X ± SD End: 3505.3 ± 917.1 mm^3
[2]; [12]
  Number End/begin: 7/7

## CN(Cc1nc2c(N3CCOCC3)nc(-c3ccc(N)cc3)nc2n1C)c1ncc(C(=O)NO)cn1 [PM, Purinostat mesylate]
[3]
  Gibbs free energy: -5.055 kcal/mol
SU-DHL-6 cells [1]; 3 nM
  apoptotic SU-DHL-6 cells: 14.99%
SU-DHL-6 cells [1]; 6 nM
  apoptotic SU-DHL-6 cells: 55.2%
SU-DHL-6 cells [4]
  IC50: 1.88 nM
[2]; mouse, in vivo, iv, 2.5 mg/kg
  Body weight (g) X ± SD Begin: 22.0 ± 0.3 g
  Number End/begin: 7/7
  RTV: 14.21^begkmp
  Tumour volume (mm^3) X ± SD Begin: 140.3 ± 23.7 mm^3
  Tumour volume (mm^3) X ± SD End: 1970.1 ± 638.3 mm^3
  Tumour volume T/C%: 54.53%
  Tumour weight (g) X ± SD: 2.10 ± 0.98^cekmp g
  Tumour weight Inhibition (%): 57.35%
[2]; mouse, in vivo, iv, 5 mg/kg
  Body weight (g) X ± SD Begin: 22.3 ± 0.5 g
  Number End/begin: 7/7
  RTV: 8.26^cfiloq
  Tumour volume (mm^3) X ± SD Begin: 146.2 ± 26.5 mm^3
  Tumour volume (mm^3) X ± SD End: 1150.0 ± 510.6 mm^3
  Tumour volume T/C%: 31.69%
  Tumour weight (g) X ± SD: 1.39 ± 0.47^cfhlnr g
  Tumour weight Inhibition (%): 71.80%
[2]; mouse, in vivo, iv, 10 mg/kg
  Body weight (g) X ± SD Begin: 22.3 ± 0.5 g
  Number End/begin: 7/7
  RTV: 7.39 ^cfiloq
  Tumour volume (mm^3) X ± SD Begin: 150.9 ± 32.6 mm^3
  Tumour volume (mm^3) X ± SD End: 1084.2 ± 502.8 mm^3
  Tumour volume T/C%: 28.37%
  Tumour weight (g) X ± SD: 0.90 ± 0.43^cfilor g
  Tumour weight Inhibition (%): 81.67%
[2]; mouse, in vivo, iv, 20 mg/kg
  Body weight (g) X ± SD Begin: 22.2 ± 0.3 g
  Number End/begin: 7/7
  RTV: 4.31^cfilor
  Tumour volume (mm^3) X ± SD Begin: 158.9 ± 22.6 mm^3
  Tumour volume (mm^3) X ± SD End: 664.3 ± 190.7 mm^3
  Tumour volume T/C%: 16.53%
  Tumour weight (g) X ± SD: 0.73 ± 0.28 ^cfilor g
  Tumour weight Inhibition (%): 85.20%
[5]; PM for Injection 10 mg/kg
  Median survival (day): 30^bei day
[5]; PM for Injection 20 mg/kg
  Median survival (day): 30 ^bei day
[6]; p.o.
  CL: 7280 ± 3290.7 mL/min/kg
[6]; both sexes, rat, plasma, iv
  Tmax: 4.67 min
  clearance: 225 mL/min/kg
  half-life: 20.4 ± 19.7 min
[6]; both sexes, rat, plasma, po
  Tmax: 5.67 min
  half-life: 97.2 ± 41.5 min
[6]; [13]
  AUC: 837 ± 277 ng·h/mL
  Cmax: 3140 ± 1320 ng/mL
[6]; [14]
  AUC: 56.2 ± 24.6 ng·h/mL
  Cmax: 49.3 ± 26.4 ng/mL
[6]; both sexes, rat, plasma, oral versus intravenous, read-out: calculated bioavailability
  bioavailability: 6.71%
[7]
  expression of Ac-H4 in tumour tissue: increased
γH2AX
  expression of γH2AX in tumour tissue: increased
Ki-67
  expression of Ki-67 in tumour tissue: decreased
[8]; i.v. 10 mg/kg (PM/HP-β-CD)
  Number End/begin: 8/8
  RTV: 6.84^cfi
  Tumor Weight (g) X ±SD: 1.51±0.49^cfi g
  Tumor Weight Inhibition (%): 69.96%
  Tumor volume T/C%: 30.87%
  Body weight (g) X ± SD Begin: 22.6 ± 1.7 g
  Tumor volume (mm^3) X ±SD Begin: 194.6±26.1 mm^3
  Body Weight (g) X ±SD End: 24.9 ± 1.9 g
  Tumor volume (mm^3) X ±SD End: 1321.9±317.2 mm^3
[8]; oral group
  animal status / deaths: one of the PM oral groups died
[8]; p.o. 10 mg/kg (PM suspension)
  Number End/begin: 7/8
  RTV: 16.71^a
  Tumor Weight (g) X ±SD: 4.57 ± 0.99 g
  Tumor Weight Inhibition (%): 9.16%
  Tumor volume T/C%: 75.46%
  Body weight (g) X ± SD Begin: 21.6 ± 1.2 g
  Tumor volume (mm^3) X ±SD Begin: 199.5±22.5 mm^3
  Body Weight (g) X ±SD End: 24.9 ± 3.0 g
  Tumor volume (mm^3) X ±SD End: 3300.6±715.1 mm^3
[8]; venous group
  animal status / deaths: did not have animals in abnormal status
